# Active and inactive are the calls of the source. The rule behind the calls is not given here.
# Columns and labels:
# [1] = target: T1, NACHT, LRR and PYD domains-containing protein 3 (Mus musculus, UniProt Q8R4B8); test: Inhibition of NLRP3 in mouse J774A.1 cells infected with FLA-ST assessed as inhibition of LPS- induced IL-1beta production by ELISA; format: cell-based, J774.A1
# [2] = Solubility of compound; format: physicochemical
# [3] = Selectivity index, ratio of TC50 for cytotoxicity against human HEK293T cells to IC50 for inhibition of NLRP3 in mouse J774A.1 cells
# [4] = Cytotoxicity against human HEK293T cells assessed as reduction in cell viability at 24 hrs by CCK8 assay; format: cell-based, HEK-293T; details: read-out: TD50
# [5] = Stability assessed as glutathione reactivity of compound incubated for 24 hrs; format: physicochemical
# [6] = target: NACHT, LRR and PYD domains-containing protein 3 (Mus musculus) (UniProt Q8R4B8); test: Inhibition of NLRP3 inflammasome activation in LPS/nigericin-treated mouse J774A.1 cells assessed as blockade of caspase 1 p20 maturation pre-treated for 1 hr measured after 1 hr of stimulation by Western blot analysis; details: J774.A1, dose 1-5 µM, time 2.0 hrs
# Chain of NACHT, LRR and PYD domains-containing protein 3 (Mus musculus) (Q8R4B8 whole entry, the tested form may be a part): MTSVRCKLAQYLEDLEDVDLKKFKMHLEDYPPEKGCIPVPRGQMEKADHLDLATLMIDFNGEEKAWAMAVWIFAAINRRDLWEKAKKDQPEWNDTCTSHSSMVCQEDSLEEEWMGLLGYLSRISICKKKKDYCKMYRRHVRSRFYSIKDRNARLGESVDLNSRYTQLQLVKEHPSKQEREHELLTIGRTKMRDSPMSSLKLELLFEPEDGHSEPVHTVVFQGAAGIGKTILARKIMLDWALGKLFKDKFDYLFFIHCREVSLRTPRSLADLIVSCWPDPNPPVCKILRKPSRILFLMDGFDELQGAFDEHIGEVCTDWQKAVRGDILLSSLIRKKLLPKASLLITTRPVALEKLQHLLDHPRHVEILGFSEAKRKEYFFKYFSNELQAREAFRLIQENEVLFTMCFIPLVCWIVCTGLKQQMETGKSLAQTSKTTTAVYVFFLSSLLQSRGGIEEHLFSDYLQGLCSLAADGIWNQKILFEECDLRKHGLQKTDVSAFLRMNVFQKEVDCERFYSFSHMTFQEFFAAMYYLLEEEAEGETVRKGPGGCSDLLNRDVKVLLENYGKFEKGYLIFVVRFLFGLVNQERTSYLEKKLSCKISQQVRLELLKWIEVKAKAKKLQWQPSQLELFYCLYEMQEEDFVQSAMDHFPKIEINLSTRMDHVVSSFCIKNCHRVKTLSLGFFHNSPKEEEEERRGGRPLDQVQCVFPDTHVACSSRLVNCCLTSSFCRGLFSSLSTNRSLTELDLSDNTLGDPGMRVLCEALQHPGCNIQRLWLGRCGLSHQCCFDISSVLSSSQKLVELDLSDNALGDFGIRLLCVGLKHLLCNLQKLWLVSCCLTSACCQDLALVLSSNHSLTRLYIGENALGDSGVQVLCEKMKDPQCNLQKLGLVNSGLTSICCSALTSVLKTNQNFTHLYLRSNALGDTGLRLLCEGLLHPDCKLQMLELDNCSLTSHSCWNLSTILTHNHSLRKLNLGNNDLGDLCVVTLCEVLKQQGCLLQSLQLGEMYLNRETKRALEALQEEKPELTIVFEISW
# [7] = target: NACHT, LRR and PYD domains-containing protein 3 (Mus musculus) (UniProt Q8R4B8); test: (§1) Inhibition of NLRP3 inflammasome activation in LPS/nigericin-treated mouse BMDM cells assessed as inhibition of LPS and nigericin-induced IL-1beta production pre-treated for 1 hr measured after 1 hr of stimulation by ELISA; format: cell-based; details: dose 1-5 µM, time 2.0 hrs
# J774.A1 [8] = test: Inhibition of reactive oxygen species generation in LPS/nigericin-induced mouse J774.A1 cells pre-treated for 1 hr at 1 to 5 uM measured after 1 hr of stimulation by fluorescence microplate-reader relative to control; format: functional, cell-based; details: dose 1-5 µM, time 2.0 hrs
# [9] = target: NACHT, LRR and PYD domains-containing protein 3 (Mus musculus) (UniProt Q8R4B8); test: Inhibition of NLRP3 inflammasome activation in LPS/nigericin-treated mouse J774A.1 cells assessed as effect on pro-IL-1-beta pre-treated for 1 hr at 1 to 5 uM measured after 1 hr of stimulation by Western blot analysis; details: J774.A1, dose 1-5 µM, time 2.0 hrs
# J774.A1 [10] = test: Inhibition of mitochondrial reactive oxygen species generation in LPS/nigericin-induced mouse J774.A1 cells pre-treated for 1 hr at 1 to 5 uM measured after 1 hr of stimulation by MitoSOX Red fluorescence microplate-reader relative to control; format: functional; details: dose 1-5 µM, time 2.0 hrs
# Mus musculus [11] = test: Antiinflammatory activity in po dosed LPS-induced sepsis C57BL/6 mouse model assessed as reduction in IL-1beta secretion in peritonial fluid measured after 6 hrs by ELISA; format: functional, organism-based; details: dose 25-50 mg/kg
# J774.A1 [12] = test: Anti-pyroptosis activity against LPS/nigericin-induced mouse […] cells pre-treated for 1 hr at 1 to 5 uM measured after 1 hr of stimulation; format: functional, cell-based; details: dose 1-5 µM
# Mus musculus [13] = test: Antiinflammatory activity in po dosed LPS-induced sepsis C57BL/6 mouse model assessed as reduction in IL-1beta secretion in serum measured after 6 hrs by ELISA; format: functional, organism-based; details: dose 25-50 mg/kg
# Mus musculus [14] = test: Anti-colitis activity against DSS-induced colitis C57BL/6 mouse model assessed as reduction in fecal occult blood treated orally once daily for 14 days started from day 3 post DSS-challenge; format: functional, organism-based; details: dose 25-50 mg/kg, time 14.0 day
# J774.A1 [15] = test: Inhibition of reactive oxygen species generation in LPS/nigericin-induced mouse J774.A1 cells pre-treated for 1 hr at 1 to 5 uM measured after 1 hr of stimulation by DCFH-DA staining-based method relative to control; format: functional, cell-based; details: dose 1-5 µM, time 2.0 hrs
# [16] = target: NACHT, LRR and PYD domains-containing protein 3 (Mus musculus) (UniProt Q8R4B8); test: Inhibition of NLRP3 inflammasome activation in LPS/nigericin-treated mouse J774A.1 cells assessed as inhibition of LPS and nigericin-induced IL-1beta production pre-treated for 1 hr measured after 1 hr of stimulation by ELISA; details: J774.A1, dose 1-5 µM, time 2.0 hrs
# [17] = target: NLR family CARD domain-containing protein 4 (Mus musculus) (UniProt Q3UP24); test: Inhibition of NLRC4 inflammasome activation in LPS-induced mouse […] cells infected with […] pre-treated for 1 hr at 1 to 5 uM measured after 1 hr of stimulation; details: J774.A1, dose 1-5 µM, time 2.0 hrs
# Chain of NLR family CARD domain-containing protein 4 (Mus musculus) (Q3UP24 whole entry, the tested form may be a part): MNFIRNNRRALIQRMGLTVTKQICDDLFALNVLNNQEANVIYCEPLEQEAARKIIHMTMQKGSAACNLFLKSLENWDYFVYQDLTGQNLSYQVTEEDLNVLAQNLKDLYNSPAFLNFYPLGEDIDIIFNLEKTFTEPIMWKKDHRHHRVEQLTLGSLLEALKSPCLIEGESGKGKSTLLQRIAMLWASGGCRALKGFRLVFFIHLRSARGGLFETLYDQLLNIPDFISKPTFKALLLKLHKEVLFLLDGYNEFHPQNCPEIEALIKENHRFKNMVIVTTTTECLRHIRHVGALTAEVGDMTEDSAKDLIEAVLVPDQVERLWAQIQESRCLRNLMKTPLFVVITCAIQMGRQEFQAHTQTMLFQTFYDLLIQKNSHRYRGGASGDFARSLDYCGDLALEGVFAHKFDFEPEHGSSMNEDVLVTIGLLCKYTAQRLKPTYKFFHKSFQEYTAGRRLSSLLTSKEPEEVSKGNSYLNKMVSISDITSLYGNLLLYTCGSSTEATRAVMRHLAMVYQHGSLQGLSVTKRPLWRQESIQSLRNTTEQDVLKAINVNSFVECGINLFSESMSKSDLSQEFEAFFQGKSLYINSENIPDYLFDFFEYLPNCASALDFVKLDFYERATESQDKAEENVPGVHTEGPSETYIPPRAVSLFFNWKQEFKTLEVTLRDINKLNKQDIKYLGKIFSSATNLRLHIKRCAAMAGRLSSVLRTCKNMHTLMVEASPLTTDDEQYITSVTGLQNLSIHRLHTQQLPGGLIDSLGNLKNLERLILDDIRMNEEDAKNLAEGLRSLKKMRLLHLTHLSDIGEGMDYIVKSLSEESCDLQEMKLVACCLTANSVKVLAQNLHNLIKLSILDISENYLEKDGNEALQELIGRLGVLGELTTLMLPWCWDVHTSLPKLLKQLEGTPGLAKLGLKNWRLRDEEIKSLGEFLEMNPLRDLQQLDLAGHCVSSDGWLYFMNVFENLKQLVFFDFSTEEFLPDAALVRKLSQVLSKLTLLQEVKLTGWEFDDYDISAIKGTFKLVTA
# J774.A1 [18] = test: Cytotoxicity against mouse J774A.1 cells assessed as reduction in cell viability at 2 hrs by CellTiter 96 AQueous One solution cell proliferation assay; format: cell-based; details: j774.a1, 2 h
# Mus musculus [19] = test: Anti-colitis activity against DSS-induced colitis C57BL/6 mouse model assessed as reduction in IL-1 beta in colonic tissue treated orally once daily for 14 days started from day 3 post DSS-challenge by ELISA relative to control; format: functional, organism-based; details: dose 25-50 mg/kg, time 14.0 day
# [20] = target: NACHT, LRR and PYD domains-containing protein 3 (Mus musculus) (UniProt Q8R4B8); test: Inhibition of NLRP3 inflammasome activation in LPS/nigericin-treated mouse J774A.1 cells assessed as blockade of IL-1beta secretion pre-treated for 1 hr measured after 1 hr of stimulation by Western blot analysis; details: J774.A1, dose 1-5 µM, time 2.0 hrs
# Mus musculus [21] = test: Anti-colitis activity against DSS-induced colitis C57BL/6 mouse model assessed as reduction in colon length treated orally once daily for 14 days started from day 3 post DSS-challenge; format: functional, organism-based; details: dose 25-50 mg/kg, time 14.0 day
# [22] = target: T2, Interferon-inducible protein AIM2 (Mus musculus) (UniProt Q91VJ1); test: Inhibition of AIM2 inflammasome activation in LPS-induced mouse […] cells infected with […] pre-treated for 1 hr at 1 to 5 uM measured after 1 hr of stimulation; details: J774.A1, dose 1-5 µM, time 2.0 hrs
# T2 sequence (whole entry): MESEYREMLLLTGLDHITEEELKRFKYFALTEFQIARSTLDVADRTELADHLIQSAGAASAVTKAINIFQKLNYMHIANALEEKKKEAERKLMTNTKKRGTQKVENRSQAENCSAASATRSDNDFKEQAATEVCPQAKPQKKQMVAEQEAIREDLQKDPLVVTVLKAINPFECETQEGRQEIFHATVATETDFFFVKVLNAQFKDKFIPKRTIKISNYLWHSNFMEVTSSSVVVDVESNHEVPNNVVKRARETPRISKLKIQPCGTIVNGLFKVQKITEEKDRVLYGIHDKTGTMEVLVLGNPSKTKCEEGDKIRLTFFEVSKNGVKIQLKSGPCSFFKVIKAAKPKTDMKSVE
# J774.A1 [23] = test: Inhibition of IL-1 beta release in LPS/nigericin-induced mouse J774.A1 cells pre-treated for 1 hr at 1 to 5 uM measured after 1 hr of stimulation by Western blot analysis; format: functional; details: dose 1-5 µM, time 2.0 hrs
# J774.A1 [24] = test: Cytotoxicity against mouse J774A.1 cells assessed as reduction in cell viability at 24 hrs by CCK8 assay; format: cell-based; details: j774.a1, 24 h
# [25] = target: NACHT, LRR and PYD domains-containing protein 3 (Mus musculus) (UniProt Q8R4B8); test: Inhibition of NLRP3 inflammasome activation in LPS/nigericin-treated mouse J774A.1 cells assessed as effect on […] in cell lysate pre-treated for 1 hr at 1 to 5 uM measured after 1 hr of stimulation by Western blot analysis; format: subcellular; details: J774.A1, dose 1-5 µM, time 2.0 hrs
# [26] = target: NACHT, LRR and PYD domains-containing protein 3 (Mus musculus) (UniProt Q8R4B8); test: Inhibition of NLRP3 inflammasome activation in LPS/nigericin-treated mouse J774A.1 cells assessed as effect on pro-caspase-1 pre-treated for 1 hr at 1 to 5 uM measured after 1 hr of stimulation by Western blot analysis; details: J774.A1, dose 1-5 µM
# [27] = target: T1, NACHT, LRR and PYD domains-containing protein 3; test: as §1; format: cell-based
# T1 sequence (Q8R4B8 whole entry, the tested form may be a part): as the sequence (Q8R4B8 whole entry, the tested form may be a part) above
smiles,measurement,setting,value
CCc1cc(/C=C/C(=O)c2ccc(SC)cc2)cc(CC)c1O,IC50,[1],11.7 µM
Cc1cc(/C=C/C(=O)c2ccc(NS(=O)(=O)NC(C)C)cc2)cc(C)c1O,IC50,[1],3.4 µM
COc1c(C)cc(/C=C/C(=O)c2ccc(NC(=O)Nc3ccc(C)cc3)cc2)cc1C,IC50,[1],38.7 µM
CSc1ccc(C(=O)/C=C/c2ccc(O)c(O)c2)cc1,IC50,[1],1.6 µM
same,solubility,[2],Insoluble
Cc1cc(/C=C/C(=O)c2ccc(-c3ccccc3)cc2)cc(C)c1O,IC50,[1],29.4 µM
COc1cc(/C=C/C(=O)c2ccc(SC)cc2)cc(OC)c1O,IC50,[1],> 40 µM
CS(=O)(=O)CCC#N [DAPANSUTRILE],IC50,[1],0.1 µM
CSc1ccc(C(=O)/C=C/c2cc(C)c(OCCO)c(C)c2)cc1,IC50,[1],12.7 µM
CSc1ccc(C(=O)/C=C/c2cc(C)c(O)c(C)c2)cc1,Selectivity Index,[3],41
same,CC50 at 24 h,[4],86.2 µM
same,IC50,[1],2.1 µM
same,Stabilty,[5],Stable
COc1cc(/C=C/C(=O)c2ccc(SC)cc2)ccc1O,IC50,[1],10 µM
CCCNC(=O)Oc1c(C)cc(/C=C/C(=O)c2ccc(SC)cc2)cc1C,IC50,[1],22.3 µM
Cc1cc(/C=C/C(=O)c2ccc(-c3cccs3)cc2)cc(C)c1O,IC50,[1],> 40 µM
Cc1cc(/C=C/C(=O)c2ccc(S(C)(=O)=O)cc2)cc(C)c1O,IC50,[1],12.9 µM
CCCNC(=O)Nc1ccc(C(=O)/C=C/c2cc(C)c(OC)c(C)c2)cc1,IC50,[1],9.6 µM
CSc1ccc(C(=O)/C=C/c2ccc(O)c(C)c2)cc1,IC50,[1],8.8 µM
CSc1ccc(C(=O)/C=C/c2ccc(O)cc2)cc1,IC50,[1],14.6 µM
CSc1ccc(C(=O)/C=C/c2ccc(O)c(F)c2)cc1,IC50,[1],10.7 µM
CCN(CC)C(=S)SSC(=S)N(CC)CC [DISULFIRAM],IC50,[1],3 µM
Cc1cc(/C=C/C(=O)c2ccc(I)cc2)cc(C)c1O,IC50,[1],28.6 µM
CSc1ccc(C(=O)/C=C/c2cc(C)c(OC(C)(C)C(=O)O)c(C)c2)cc1 [ELAFIBRANOR],Selectivity Index,[3],3.6
same,CC50 at 24 h,[4],142 µM
same,IC50,[1],39.6 µM
COc1c(C)cc(/C=C/C(=O)c2ccc(N)cc2)cc1C,IC50,[1],5.7 µM
COc1c(C)cc(/C=C/C(=O)c2ccc(NC(=O)NC(C)C)cc2)cc1C,IC50,[1],33.2 µM
CSc1ccc(C(=O)/C=C/c2ccc(O)cc2F)cc1,IC50,[1],12.7 µM
CSc1ccc(C(=O)/C=C/c2cc(C)c(OCC(=O)O)c(C)c2)cc1,IC50,[1],> 40 µM
COc1c(C)cc(/C=C/C(=O)c2ccc(SC)cc2)cc1C,IC50,[1],49.5 µM
CSc1ccc(C(=O)/C=C/c2c(C)cc(O)cc2C)cc1,IC50,[1],> 40 µM
COc1c(C)cc(/C=C/C(=O)c2ccc(NC(=O)Nc3ccc(F)cc3)cc2)cc1C,IC50,[1],23.5 µM
Cc1ccc(-c2ccc(C(=O)/C=C/c3cc(C)c(O)c(C)c3)cc2)s1,IC50,[1],> 40 µM
CCC(Oc1c(C)cc(/C=C/C(=O)c2ccc(SC)cc2)cc1C)C(=O)O (stereo not drawn),IC50,[1],31.7 µM
CSc1ccc(C(=O)/C=C/c2ccc(O)c(Cl)c2)cc1,IC50,[1],9.7 µM
Cc1cc(/C=C/C(=O)c2ccc(Cl)cc2)cc(C)c1O,IC50,[1],3.9 µM
CSc1ccc(C(=O)/C=C/c2ccc(C(=O)O)cc2)cc1,IC50,[1],3.5 µM
C=CC(=O)Nc1ccc(C(=O)/C=C/c2cc(C)c(O)c(C)c2)cc1,inhibition,[6],Dose-Dependent Effect
same,inhibition,[7],Dose-Dependent Effect
same,inhibition,J774.A1 [8],Active
same,Selectivity Index,[3],119.7
same,inhibition,[9],inactive
same,inhibition,J774.A1 [10],Active
same,Activity,Mus musculus [11],Dose-Dependent Effect
same,Activity,J774.A1 [12],Active
same,CC50 at 24 h,[4],156 µM
same,Activity,Mus musculus [13],Dose-Dependent Effect
same,Activity,Mus musculus [14],Active
same,inhibition,J774.A1 [15],Active
same,inhibition,[16],Dose-Dependent Effect
same,inhibition,[17],inactive
same,Activity,J774.A1 [18],Non-Toxic
same,IC50,[1],1.3 µM
same,Stabilty,[5],Stable
same,Activity,Mus musculus [19],Active
same,inhibition,[20],inactive
same,Activity,Mus musculus [21],Active
same,inhibition,[22],inactive
same,inhibition,J774.A1 [23],Active
same,Activity,J774.A1 [24],Toxic
same,inhibition,[25],inactive
same,Activity,[26],inactive
Cc1cc(/C=C/C(=O)c2ccc([S+](C)[O-])cc2)cc(C)c1O (stereo not drawn),IC50,[1],10.6 µM
CSc1ccc(C(=O)/C=C/c2cc(C)c(O)cc2C)cc1,IC50,[1],5.3 µM
CSc1ccc(C(=O)/C=C/c2ccc3c(c2)CCO3)cc1,IC50,[1],24.2 µM
Cc1cc(/C=C/C(=O)c2ccc(F)cc2)cc(C)c1O,IC50,[1],12.3 µM
COc1c(C)cc(/C=C/C(=O)c2ccc(N(C)C)cc2)cc1C,IC50,[1],25.9 µM
C=C(COc1c(C)cc(/C=C/C(=O)c2ccc(SC)cc2)cc1C)C(=O)O,IC50,[1],> 40 µM
Cc1cc(/C=C/C(=O)c2ccc(NS(=O)(=O)c3ccc(F)cc3)cc2)cc(C)c1O,IC50,[1],5 µM
O=C(O)c1ccc(/C=C2\SC(=S)N(Cc3cccc(C(F)(F)F)c3)C2=O)cc1,IC50,[27],1 µM
CSc1ccc(C(=O)/C=C/c2cc(C)c(OCCCN3CCOCC3)c(C)c2)cc1,IC50,[1],21.9 µM
CSc1ccc(C(=O)/C=C/c2cc(C)c(OCCCCC(=O)O)c(C)c2)cc1,IC50,[1],28.9 µM

# Source: ChEMBL document CHEMBL4814056, “Discovery of chalcone analogues as novel NLRP3 inflammasome inhibitors with potent anti-inflammation activities” (Eur J Med Chem, 2021)
